This note sets out measurements from patent US8314234B2, “Bicyclic pyrimidine kinase inhibitors” (Janssen Pharmaceutica N.V., priority 2006, dated 2012).

Assay [1] deals with T1, EGFR (Homo sapiens, UniProt P00533).
T1 construct: intracellular portion of EGFR started at nucleotide 2189 (corresponding to amino acid 667) and ended at the termination codon; made in house; host or cells: Sf9 insect cells (baculovirus)
Description: EGFR Kinase Assay. Format: biochemical. As to conditions: test concentration of 2 μM. An excerpt: The EGFR kinase used was a fusion of Glutathione-S-Transferase (GST) and a PCR amplified intracellular portion of EGFR (NM_005228). The intracellular portion of EGFR started at nucleotide 2189 (corresponding to amino acid 667) and ended at the termination codon. The portion was PCR amplified with primers that added the lambda attB sequences to each end, recombined into an entry vector, then into a GST destination vector (as described in Gateway Technologies Manual by Invitrogen Corporation, Carlsbad, Calif.).
The destination vector was recombined in the DH10BAC strain of bacteria to produce a bacmid. The bacmid was transfected into Sf9 cells and the supernatant containing the baculovirus was collected. The GSTEGFR protein was purified using large cultures of Sf9 cells infected with stock virus. After an appropriate period of time, the cells were collected and lysed. The GSTEGFR was then purified from the lysate on Glutathione-Sepharose columns (as described by Amersham Biosciences, Buckinghamshire, United Kingdom).
The EGFR substrate was prepared by biotinylating polyGluTyr (128 mg) (Sigma, St. Louis, Mo.) in a 1×PBS buffer incubated together with a 12-fold molar excess of Sulfo-NHS-LC-Biotin on ice for at least 2 hrs. The free biotin was separated from the biotinylated polyGluTyr on a gel filtration column.
A mixture of a 10× kinase buffer (500 mM Tris at pH 8.0, 100 mM Magnesium Chloride and 1 mM Sodium Vanadate), DTT (1 mM final from 500 mM stock), ATP (5 μM final from 10 mM stock), biotinylated polyGluTyr (10 μg/μL stock), γ-^33P ATP (10 μCi/μL stock) and water was added to each well (90 μL/well) of a Streptavidin Flashplate (Perkin Elmer, Wellesley, Mass.).
Test compound in 100% DMSO (2 μL) was added to the appropriate wells. Diluted GSTEGFR (1:300 dilution in 50 mM Tris at pH 8.0 and 0.1% bovine serum albumin) (10 μL) was added to the wells to initiate the reactions.
The plates were incubated at 30° C. for 1 hr with shaking. The reacted contents were removed and the plates were sequentially washed three times with a 1×PBS stop buffer (300 μL without Magnesium and Calcium) and 100 mM EDTA. After the final wash, the same stop buffer (200 μL) was added to the wells. The plates were then sealed and read on the TopCount scintillation counter.
Test compounds were assayed in triplicate at 16 concentrations at half-log dilutions starting at 200 uM. A maximum and minimum signal for the assay was determined on each plate. The percent inhibition of a test compound was calculated according to the formula
For a series of test concentrations, the IC50 was derived by graphing percent inhibition against the log of the concentrations tested for a given compound. The percent inhibition results are shown in Table 1 at a test concentration of 2 μM. For those compounds with an IC50, the IC50 value is shown in parentheses.

Assay [2] has as its target T2, CDK1 (Homo sapiens, UniProt P06493).
T2 construct: purchased New England Biolabs, Beverly, Mass; 6020; host or cells: insect cells
Nature of the assay: CDK-1 screening assay. Format: biochemical. The protocol:
(§1) 70 μL of the kinase reaction mixture was dispensed into the well of a streptavidin coated FlashPlate™ (Cat. #SMP103, NEN, Boston, Mass.).
(§2) Test compound stock in 100% DMSO (1 μL) was added to the wells resulting in a final concentration of 1% DMSO in the reaction with a 100 μL final reaction volume. Each enzyme was diluted in 50 mM Tris-HCl pH=8.0, 0.1% BSA and 30 μL was added to each well to initiate the reaction. The reaction was incubated for one hour at 30° C. At the end of the 1 hr incubation, the reaction was terminated by aspirating the mixture from the plate and washing the wells twice with PBS containing 100 mM EDTA. The biotinylated peptide substrate became immobilized on the Flashplate and the incorporation of ^33P-γ-ATP was measured by reading the plate on a scintillation counter. Inhibition of the enzymatic activity was measured by observing a reduced amount of ^33P-γ-ATP incorporated into the immobilized peptide.
(§3) A maximum and minimum signal for the assay was determined on each plate. The percent inhibition of a test compound was calculated according to the formula: […]
(§4) The term “ND” means “not determined.”

Assay [3] has as its target T3, CDK2 (Homo sapiens, UniProt P24941).
T3 construct: purchased Upstate Biotech, Lake Placid, N.Y
Description: CDK-2 screening assay. Format: biochemical. The protocol:
as §1, §2
The CDK2 enzyme in complex with cyclin A is commercially available (Upstate Biotech, Lake Placid, N.Y.).
as §3, §4

Assay [4] deals with VEGFR2 (Rattus norvegicus, UniProt O08775). Description: VEGFR2 screening assay. Format: biochemical. The protocol: A kinase reaction mixture was prepared containing 50 mM Tris-HCl pH=8, 10 mM MgCl2, 0.1 mM […], 1 mM DTT, 10 μM ATP, 0.025 μM biotinylated histone-H1 peptide substrate and 0.2 μCuries per well ^33P-γ-ATP (2000-3000 Ci/mmol). 70 μL of the kinase reaction mixture was dispensed into the well of a streptavidin coated FlashPlate™ (Cat. #SMP103, NEN, Boston, Mass.).
as §2
The VEGF-R2 enzyme is a fusion protein containing a polyhistidine tag at the N terminus followed by amino acids 786 to 1343 of the rat VEGF-R2 kinase domain (Accession number U93306). The assay used 150 ng of the N-terminal biotinylated peptide biotin-[…]-amide SEQ ID NO: 2) (VEGF-R2) per well.
as §3
For a series of test concentrations, the IC50 was derived by graphing percent inhibition against the log of the concentrations tested for a given compound with results shown in Table 2. For those compounds without an IC50, the inhibition values in percent are shown at a test concentration of 2 μM. The term “ND” means “not determined.”

Assay [5] relates to HeLa cervical adenocarcinoma. Description: Cell Proliferation Inhibition Assay (14C-thymidine incorporation), HeLa. Format: cell-based. As to conditions: Homo sapiens. An excerpt:
(§5) The ability of a test compound to inhibit unregulated cell proliferation may be determined by measuring incorporation of ^14C-labelled thymidine into newly synthesized DNA within cell lines derived from carcinomas originating from several tissues. Accordingly, the anti-proliferative effect of a compound on cells with a variety of phenotypes may be determined.
(§6) Carcinoma cell lines include those such as HeLa cervical adenocarcinoma (American Type Culture Collection (ATCC), Virginia, Cat. #CCL-2), A375 malignant melanoma (ATCC CRL-1619), SK-OV-3 ovarian adenocarcinoma (ATCC HTB-77), HCT-116 colon carcinoma (CCL-247), PC-3 prostate adenocarcinoma (ATCC CRL-1435), and MDA-MB-231 (Xenogen Corp.)
(§7) The carcinoma cells are trypsinized and counted. The cells (3000-8000 count) are added to each well of a 96-well CytoStar tissue culture treated scintillating microplate (Amersham #RPNQ0160) in complete medium (100 μL) and the plate is then incubated in complete medium for 24 hrs at 37° C. in an inert atmosphere containing 5% CO2. Test compound (1 μL) in 100% DMSO is added to the plate test-wells with DMSO only added to control-wells. The plate is incubated in complete medium for a second 24 hr period at 37° C. in an atmosphere containing 5% CO2.
(§8) An aliquot of a solution of Methyl ^14C-thymidine (56 mC/mmol) (NEN #NEC568 or Amersham #CFA532) and complete medium (20 uL to provide 0.2 μCi/well) is then added to each well and the plate is incubated for a third 24 hr period at 37° C. in an atmosphere containing 5% CO2. The plate contents are then discarded, the plate is washed twice with PBS (200 μL) and then PBS (200 μL) is added to each well. The plate is sealed and the degree of methyl ^14C-thymidine incorporation is quantified on a Packard Top Count.

Assay [6] has as its system HCT-116 colon carcinoma. Nature of the assay: Cell Proliferation Inhibition Assay (14C-thymidine incorporation), HCT-116. Format: cell-based. The settings on record: Homo sapiens.
Text: as §5, §6, §7, §8
Background: Uptake of a labelled nucleoside into DNA is a usual measure of proliferation.

Assay [7] concerns A375 malignant melanoma. Description: Cell Proliferation Inhibition Assay (14C-thymidine incorporation), A375. Format: cell-based. The settings on record: Homo sapiens, A-375.
Text: as §5, §6, §7, §8

Chain of VEGFR2 (O08775 786-1343): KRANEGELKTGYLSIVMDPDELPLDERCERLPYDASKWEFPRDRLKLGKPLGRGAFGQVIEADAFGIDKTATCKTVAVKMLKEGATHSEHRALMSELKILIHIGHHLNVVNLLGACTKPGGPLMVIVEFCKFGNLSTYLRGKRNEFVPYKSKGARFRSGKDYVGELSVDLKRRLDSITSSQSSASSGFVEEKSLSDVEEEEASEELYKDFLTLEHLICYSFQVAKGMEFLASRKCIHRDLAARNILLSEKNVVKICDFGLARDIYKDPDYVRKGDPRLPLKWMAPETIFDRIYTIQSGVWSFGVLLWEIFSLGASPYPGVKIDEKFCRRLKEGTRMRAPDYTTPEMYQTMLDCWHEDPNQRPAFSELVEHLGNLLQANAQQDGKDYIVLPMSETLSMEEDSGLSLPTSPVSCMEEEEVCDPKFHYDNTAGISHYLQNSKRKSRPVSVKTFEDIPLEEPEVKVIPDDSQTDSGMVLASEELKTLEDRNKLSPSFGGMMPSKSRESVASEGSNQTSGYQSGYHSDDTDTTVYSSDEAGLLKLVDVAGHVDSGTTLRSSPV
T2 sequence (P06493 whole entry): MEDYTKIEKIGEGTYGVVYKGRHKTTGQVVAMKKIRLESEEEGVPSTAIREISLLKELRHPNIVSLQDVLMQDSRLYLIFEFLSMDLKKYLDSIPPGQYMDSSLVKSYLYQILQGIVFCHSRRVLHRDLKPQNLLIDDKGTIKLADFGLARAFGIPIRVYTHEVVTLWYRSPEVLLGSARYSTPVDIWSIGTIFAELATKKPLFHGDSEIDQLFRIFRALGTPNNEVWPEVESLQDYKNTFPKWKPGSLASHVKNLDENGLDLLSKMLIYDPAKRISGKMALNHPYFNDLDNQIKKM
T2 sequence (P14635 whole entry partner): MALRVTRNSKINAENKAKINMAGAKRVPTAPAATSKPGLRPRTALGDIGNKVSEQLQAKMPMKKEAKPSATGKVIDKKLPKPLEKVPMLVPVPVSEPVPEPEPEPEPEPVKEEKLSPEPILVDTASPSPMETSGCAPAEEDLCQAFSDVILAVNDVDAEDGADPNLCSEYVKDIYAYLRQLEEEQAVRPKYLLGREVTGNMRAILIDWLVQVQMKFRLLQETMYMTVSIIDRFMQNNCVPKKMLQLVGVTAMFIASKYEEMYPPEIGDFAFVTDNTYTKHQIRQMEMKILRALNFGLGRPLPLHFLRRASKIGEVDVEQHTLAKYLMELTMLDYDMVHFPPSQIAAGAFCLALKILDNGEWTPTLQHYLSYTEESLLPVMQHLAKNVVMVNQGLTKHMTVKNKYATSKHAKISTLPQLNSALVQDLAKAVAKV
T1 sequence (P00533 669-1210 limits assumed): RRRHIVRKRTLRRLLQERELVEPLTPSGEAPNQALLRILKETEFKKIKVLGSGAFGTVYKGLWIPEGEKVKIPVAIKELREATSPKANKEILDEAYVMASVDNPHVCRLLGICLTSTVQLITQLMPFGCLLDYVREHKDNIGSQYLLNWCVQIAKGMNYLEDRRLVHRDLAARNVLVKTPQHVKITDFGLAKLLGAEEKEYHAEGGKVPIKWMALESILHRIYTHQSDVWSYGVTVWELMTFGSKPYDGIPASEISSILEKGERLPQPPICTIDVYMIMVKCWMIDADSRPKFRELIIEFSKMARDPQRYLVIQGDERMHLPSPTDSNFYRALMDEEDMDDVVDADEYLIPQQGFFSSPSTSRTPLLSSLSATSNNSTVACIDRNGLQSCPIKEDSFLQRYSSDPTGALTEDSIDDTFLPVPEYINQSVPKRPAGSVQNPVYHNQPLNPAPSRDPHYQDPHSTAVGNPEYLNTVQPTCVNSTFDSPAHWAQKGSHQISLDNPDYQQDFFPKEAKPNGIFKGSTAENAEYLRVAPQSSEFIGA

The term inhibition denotes the share of the control response that was lost under treatment. Low values mean a weak effect, high ones a strong effect. As usually defined, the IC50 is the point on the concentration scale where inhibition reaches its midpoint. Higher therefore signals weaker potency in that assay. Compound `CC(C)(C)n1ncc2c(Nc3ccc(S(=O)(=O)NCCO)cc3)nc(Nc3ccc(S(=O)(=O)NCCO)cc3)nc21` [Cpd 18, 1-t-butyl-N^4,N^6-bis-{4-[(2-hydroxy-ethyl)-amino-sulfonyl]-phenyl}-1H-pyrazolo[3,4-d]pyrimidine-4,6-diamine] had an inhibition at 2 µM in assay [1] of 23%. Further, the 50% inhibitory concentration (IC50) in assay [2] was 2.79 µM; in assay [3] it was 0.493 µM; in assay [4], greater than 100 µM; in assay [5], 100 µM; in assay [6], 100 µM; in assay [7], 1.2 µM.

As for `O=S(=O)(NCCO)c1ccc(Nc2nc(Nc3ccc(S(=O)(=O)NCCO)cc3)c3cn[nH]c3n2)cc1` [Cpd 3, N^4,N^6-bis-{4-[(2-hydroxy-ethyl)-amino-sulfonyl]-phenyl}-1H-pyrazolo[3,4-d]pyrimidine-4,6-diamine], testing at 2 µM in assay [1] gave an inhibition of 78%. In addition, the IC50 came to 0.079 µM in assay [2]; 0.018 µM in assay [3]; 0.328 µM in assay [4]; 10 µM in assay [5]; 100 µM in assay [6]; 32.6 µM in assay [7].

Regarding `NS(=O)(=O)c1ccc(Nc2nc(Nc3ccc(S(N)(=O)=O)cc3)c3cnoc3n2)cc1` [Cpd 5, N^4,N^6-bis-[4-(amino-sulfonyl)-phenyl]-isoxazolo[5,4-d]pyrimidine-4,6-diamine], the inhibition at 2 µM in assay [1] came to 39%. Besides, the half-inhibitory concentration (IC50) in assay [2] turned out to be 2.53 µM; in assay [3], 0.443 µM; in assay [4], 2.45 µM; in assay [5], 70.7 µM; in assay [6], 38.2 µM; in assay [7], 27 µM.

In assay [1], `NS(=O)(=O)c1ccc(Nc2nc(Nc3ccccn3)c3cnoc3n2)cc1` [Cpd 7, 4-[4-(pyridin-2-ylamino)-isoxazolo[5,4-d]pyrimidin-6-ylamino]-benzenesulfonamide] showed an inhibition at 2 µM of 21%. For the same compound, the half-inhibitory concentration (IC50) in assay [2] was greater than 100 µM; in assay [3], greater than 10 µM; in assay [4] it was greater than 100 µM; in assay [5], 100 µM; in assay [6], 10 µM; in assay [7], 100 µM.

`c1cc2[nH]ncc2cc1Nc1nc(Nc2ccc3[nH]ncc3c2)c2cn[nH]c2n1` [Cpd 9, N^4,N^6-bis-(1H-indazol-5-yl)-1H-pyrazolo[3,4-d]pyrimidine-4,6-diamine] showed an inhibition at 2 µM in assay [1] of 47%. The IC50 stood at 0.145 µM in assay [2]; 0.04 µM in assay [3]; 0.43 µM in assay [4]; 100 µM in assay [5]; 100 µM in assay [6]; 100 µM in assay [7].

In the case of `NS(=O)(=O)c1ccc(Nc2nc(Nc3ccccn3)c3cn[nH]c3n2)cc1` [Cpd 8, 4-[4-(pyridin-2-ylamino)-1H-pyrazolo[3,4-d]pyrimidin-6-ylamino]-benzenesulfonamide], at 2 µM the inhibition in assay [1] was 25%. In addition, the half-maximal inhibitory concentration (IC50) in assay [2] stood at 24.7 µM; in assay [3] it was 7.62 µM; in assay [4] it was 6.98 µM; in assay [5] it was 100 µM; in assay [6], 100 µM; in assay [7] it was 100 µM.
